The target of experiment [1] is Phosphatidylinositol 4,5-bisphosphate 3-kinase catalytic subunit alpha isoform (Homo sapiens, UniProt P42336). Put plainly: Inhibition of PIK3alpha (unknown origin) expressed in baculovirus assessed as inhibition constant using PIP2 as substrate in presence of [gamma-32P]ATP incubated for 30 mins by scintillation proximity assay. Background: Scintillation proximity formats need no separation of bound from free tracer.

In experiment [2] the target is T1, Serine/threonine-protein kinase mTOR (Homo sapiens, UniProt P42345). Description: Inhibition of mTOR (unknown origin) assessed as inhibition constant using GFP-4EBP1 as substrate by Lanthascreen based time resolved fluorescence based assay. (TR-FRET usually uses a lanthanide donor and a delayed reading to cut background.)
Experiment [3] has as its target T1, Serine/threonine-protein kinase mTOR.
The target of experiment [4] is Serine/threonine-protein kinase mTOR (Rattus norvegicus, UniProt P42346). Put plainly: Inhibition of mTOR in rat brain by […] immunoblot assay. The experiment is classed as tissue-based.
Experiment [5] concerns Splenocyte. Description: Immunosuppressive activity in BDF1 mouse Splenocyte assessed as inhibition of concanavalin A induced T-cell proliferation incubated for 72 hrs by [3H]-thymidine incorporation based liquid scintillation counter analysis. The format is functional. (In general: Incorporation of labelled thymidine or its analogues reports DNA synthesis.)
Experiment [6] addresses T1, Serine/threonine-protein kinase mTOR. Description: Binding affinity to mTOR (unknown origin) assessed as dissociation constant by measuring pKd.
Experiment [7] deals with Cortical neurone. Put plainly: Neuroprotective activity in rat Primary cortical neuron assessed as increase in neuronal survival by measuring neurofilament incubated for 72 hrs by ELISA. The experiment is classed as functional, cell-based.
Experiment [8] has as its system Cortical neurone. Description: Neuroprotective activity in rat Primary cortical neuron assessed as increase in neurite outgrowth incubated for 72 hrs by cellomics array-scan assay. The experiment is classed as functional, cell-based.
Experiment [9] has as its target mTORC2 (Homo sapiens, UniProt P42345). Put plainly: Inhibition of mTORC2 in human LN-229 cells assessed as decrease in phosphorylation of AKT at Ser473 level incubated for 24 hrs by immunoblot assay. The experiment is classed as cell-based.
Experiment [10] is described as follows: Inhibition of DNAPK in human HCT-116 cells preincubated for 1 hr followed by UV radiation and measured after 1 hr by Bradford assay based immunoblotting analysis. The format is cell-based.

Consider nine compounds from ChEMBL document CHEMBL5230127, “Research progress of mTOR inhibitors” (Eur J Med Chem, 2020).

As a reminder, the Ki is a dissociation constant, usually derived from enzyme kinetics or from competition with a known ligand. For orientation: IC50 means the concentration at which inhibition is half-maximal. Usually Kd stands for the equilibrium constant for the complex coming apart. The term EC50 denotes the concentration at which the effect is half-maximal.

Chain of Phosphatidylinositol 4,5-bisphosphate 3-kinase catalytic subunit alpha isoform (P42336 whole entry, canonical isoform): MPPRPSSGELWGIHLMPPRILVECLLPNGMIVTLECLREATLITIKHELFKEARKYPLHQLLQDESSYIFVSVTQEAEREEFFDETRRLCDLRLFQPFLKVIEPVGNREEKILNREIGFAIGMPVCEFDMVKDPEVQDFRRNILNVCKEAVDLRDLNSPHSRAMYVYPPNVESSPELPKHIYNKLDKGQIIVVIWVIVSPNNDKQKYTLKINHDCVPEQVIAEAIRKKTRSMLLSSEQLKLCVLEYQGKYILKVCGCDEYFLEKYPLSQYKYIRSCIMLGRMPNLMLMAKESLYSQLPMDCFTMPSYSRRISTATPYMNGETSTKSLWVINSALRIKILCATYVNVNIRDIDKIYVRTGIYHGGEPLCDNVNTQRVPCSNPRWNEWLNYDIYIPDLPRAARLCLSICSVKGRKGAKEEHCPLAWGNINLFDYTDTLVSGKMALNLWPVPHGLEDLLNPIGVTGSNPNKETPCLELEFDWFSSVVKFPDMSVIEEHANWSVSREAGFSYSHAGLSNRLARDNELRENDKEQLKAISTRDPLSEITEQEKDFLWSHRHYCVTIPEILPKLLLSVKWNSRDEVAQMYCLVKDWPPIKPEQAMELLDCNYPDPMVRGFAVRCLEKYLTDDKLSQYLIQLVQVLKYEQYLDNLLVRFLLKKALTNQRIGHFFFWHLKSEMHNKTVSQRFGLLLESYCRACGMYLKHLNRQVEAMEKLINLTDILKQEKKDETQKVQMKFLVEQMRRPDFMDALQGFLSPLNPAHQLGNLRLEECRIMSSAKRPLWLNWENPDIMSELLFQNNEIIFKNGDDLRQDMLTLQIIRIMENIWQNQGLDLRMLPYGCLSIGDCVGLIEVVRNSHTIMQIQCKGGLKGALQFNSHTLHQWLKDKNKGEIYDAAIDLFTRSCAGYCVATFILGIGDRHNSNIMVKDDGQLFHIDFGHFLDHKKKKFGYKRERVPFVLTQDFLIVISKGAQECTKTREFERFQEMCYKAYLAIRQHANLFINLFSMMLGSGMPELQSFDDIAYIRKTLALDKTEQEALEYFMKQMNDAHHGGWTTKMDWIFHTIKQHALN

Turning to `O=C(O[C@@H]1Cc2c(O)cc(O)cc2O[C@@H]1c1cc(O)c(O)c(O)c1)c1cc(O)c(O)c(O)c1` [EPIGALOCATECHIN GALLATE], the inhibitory constant (Ki) amounted to 380 nM in [1] and 320 nM in [2].
Regarding `COc1cccc2cc(-c3nc(C4CCC(C(=O)O)CC4)n4ncnc(N)c34)[nH]c12` (stereo unspecified), the 50% inhibitory concentration (IC50) in [3] amounted to 4 nM.
As for `COC[C@H]1OC(=O)c2coc3c2[C@@]1(C)C1=C(C3=O)[C@@H]2CCC(=O)[C@@]2(C)C[C@H]1OC(C)=O` [WORTMANNIN], half-maximal inhibition in experiment [4] (IC50) required 300 nM.
For the compound `CO[C@@H]1C[C@H](C[C@@H](C)[C@@H]2CC(=O)[C@H](C)/C=C(\C)[C@@H](O)[C@@H](OC)C(=O)[C@H](C)C[C@H](C)/C=C/C=C/C=C(\C)CC[C@@H]3CC[C@@H](C)[C@@](O)(O3)C(=O)C(=O)N3CCCC[C@H]3C(=O)O2)CC[C@H]1O`, in experiment [5], the IC50 was 2 nM.
On the same count and under the same terms, in the case of `CO[C@@H]1C[C@H](C[C@@H](C)[C@@H]2CC(=O)[C@H](C)/C=C(\C)[C@@H](O)[C@@H](OC)C(=O)[C@H](C)C[C@H](C)/C=C/C=C/C=C(\C)[C@@H](OCc3ccccc3)C[C@@H]3CC[C@@H](C)[C@@](O)(O3)C(=O)C(=O)N3CCCC[C@H]3C(=O)O2)CC[C@H]1O` it was 6 nM.
In the case of `CNc1ncnn2c(C3CCC(C(=O)O)CC3)nc(-c3cc4cccc(OC5CCOC5)c4[nH]3)c12` (stereo unspecified), in experiment [6], the Kd was 204 nM.
For the compound `CO[C@H]1C[C@@H]2CC[C@@H](C)[C@@](O)(O2)C(=O)C(=O)N2CCCC[C@H]2C(=O)O[C@H]([C@H](C)C[C@@H]2CC[C@@H](O)[C@H](OC)C2)CC(=O)[C@H](C)/C=C(\C)[C@@H](O)[C@@H](OC)C(=O)[C@H](C)C[C@H](C)C2C=CC(/C=C/1C)ON2c1ccccc1`, the 50% effective concentration (EC50) in [7] is 700 nM; in experiment [8] it was 420 nM.
On to `CC1CN(C(=O)Nc2ccc(Cl)c(Cl)c2)/C(=N/c2cccc(F)c2)S1` (stereo unspecified), for which the 50% inhibitory concentration (IC50) in experiment [9] was determined as 310 nM.
Turning to `Nc1ccc(-c2ccc3ncc4ccc(=O)n(-c5cccc(C(F)(F)F)c5)c4c3c2)cn1`, the 50% inhibitory concentration (IC50) in experiment [10] is under 10 nM.
